Test results reported in US20120220581A1, “IMIDAZO[1,2-b]PYRIDAZINE DERIVATIVES AND THEIR USE AS PDE10 INHIBITORS” (Janssen-Cilag, S.A., priority 2009, published 2012).
Read-outs that look alike come from different tables or passages of the source.

Tests used:
[1] = target: T1, Rat recombinant PDE10A (rPDE10A2) (Rattus norvegicus, UniProt Q9QYJ6); assay: In vitro assay PDE10A (SPA, 3H-cAMP); format: biochemical
T1 construct: inferred from the Ni metal chelate purification; made in house; host or cells: Sf9 insect cells (baculovirus)
T1 sequence (Q9QYJ6 1-794): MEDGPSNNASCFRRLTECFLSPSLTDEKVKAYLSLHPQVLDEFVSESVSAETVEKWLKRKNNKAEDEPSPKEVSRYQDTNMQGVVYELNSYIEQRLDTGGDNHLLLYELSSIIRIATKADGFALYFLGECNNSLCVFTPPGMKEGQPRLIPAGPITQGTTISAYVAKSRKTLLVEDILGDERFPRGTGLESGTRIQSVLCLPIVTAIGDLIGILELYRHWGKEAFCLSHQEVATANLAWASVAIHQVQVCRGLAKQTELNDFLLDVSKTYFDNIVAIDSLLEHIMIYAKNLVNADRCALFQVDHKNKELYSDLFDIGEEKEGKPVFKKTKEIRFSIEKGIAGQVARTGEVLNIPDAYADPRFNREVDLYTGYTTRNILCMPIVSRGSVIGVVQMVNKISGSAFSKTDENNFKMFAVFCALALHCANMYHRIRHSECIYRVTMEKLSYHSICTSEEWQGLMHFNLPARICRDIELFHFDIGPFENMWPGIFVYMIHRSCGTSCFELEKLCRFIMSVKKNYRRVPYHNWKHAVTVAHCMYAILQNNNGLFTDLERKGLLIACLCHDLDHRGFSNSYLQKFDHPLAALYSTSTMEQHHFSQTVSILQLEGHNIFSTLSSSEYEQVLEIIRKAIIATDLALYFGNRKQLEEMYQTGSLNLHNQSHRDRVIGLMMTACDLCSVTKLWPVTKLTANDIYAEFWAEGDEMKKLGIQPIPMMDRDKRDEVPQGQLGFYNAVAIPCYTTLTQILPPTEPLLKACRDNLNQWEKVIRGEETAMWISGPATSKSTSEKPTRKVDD
In short: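 Scintillation proximity read-out (cpm) of 3H-cAMP hydrolysis after 60 min at room temperature, with enzyme-free blanks and 1% DMSO controls. Enzyme was Sf9-expressed, Ni-sepharose-purified rat rPDE10A2; substrate 60 nM cAMP with tracer, buffer Tris pH 7.8 containing MgCl2 and EGTA.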

[2] = target: PDE4D3 (Homo sapiens, UniProt Q08499); assay: In vitro PDE selectivity assay (SPA), PDE4D3; format: biochemical; conditions: hPDE4D3; read-out: PDE 4D3 (expressed as pIC50) (converted)
PDE4D3, sequence (Q08499 1-673 isoform Q08499-2): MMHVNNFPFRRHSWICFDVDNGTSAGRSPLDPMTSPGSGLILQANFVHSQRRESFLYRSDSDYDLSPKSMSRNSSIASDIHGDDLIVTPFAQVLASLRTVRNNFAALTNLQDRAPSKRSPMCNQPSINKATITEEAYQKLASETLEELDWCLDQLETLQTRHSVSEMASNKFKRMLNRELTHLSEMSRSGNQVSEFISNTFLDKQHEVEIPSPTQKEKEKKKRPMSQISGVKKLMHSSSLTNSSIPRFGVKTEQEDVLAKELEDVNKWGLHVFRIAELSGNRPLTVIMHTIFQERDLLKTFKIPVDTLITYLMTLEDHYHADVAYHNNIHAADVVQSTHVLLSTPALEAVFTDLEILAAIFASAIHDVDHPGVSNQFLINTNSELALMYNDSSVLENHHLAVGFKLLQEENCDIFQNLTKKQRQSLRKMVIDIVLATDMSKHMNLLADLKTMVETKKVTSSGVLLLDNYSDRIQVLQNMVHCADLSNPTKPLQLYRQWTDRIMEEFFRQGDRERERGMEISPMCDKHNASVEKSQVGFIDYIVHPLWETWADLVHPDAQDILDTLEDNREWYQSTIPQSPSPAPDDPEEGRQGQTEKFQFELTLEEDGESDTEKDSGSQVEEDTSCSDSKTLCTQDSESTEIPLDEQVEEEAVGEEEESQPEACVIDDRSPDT
Experimental: (§1) Rat recombinant PDE10A (rPDE10A2) was expressed in Sf9 cells using a recombinant rPDE10A baculovirus construct. Cells were harvested after 48 h of infection and the rPDE10A protein was purified by metal chelate chromatography on Ni-sepharose 6FF. Tested compounds were dissolved and diluted in 100% DMSO to a concentration 100 fold of the final concentration in the assay. Compound dilutions (0.4 μl) were added in 384 well plates to 20 μl of incubation buffer (50 mM Tris pH 7.8, 8.3 mM MgCl2, 1.7 mM EGTA). 10 μl of rPDE10A enzyme in incubation buffer was added and the reaction was started by addition of 10 μl substrate to a final concentration of 60 nM cAMP and 0.008 μCi ^3H-cAMP. The reaction was incubated for 60 minutes at room temperature. After incubation, the reaction was stopped with 20 μl of stop solution consisting of 17.8 mg/ml PDE SPA (scintillation proximity assay) beads. After sedimentation of the beads during 30 minutes the radioactivity was measured in a Perkin Elmer Topcount scintillation counter and results were expressed as cpm. For blanc values the enzyme was omitted from the reaction and replaced by incubation buffer. Control values were obtained by addition of a final concentration of 1% DMSO instead of compound. The same assay principle is applied for the measurement of the affinity of the compound for other members of the PDE family with appropriate modifications in incubation buffer, substrate concentration, incubation time and stop solution. An overview of the different protocols is presented in table A. A best fit curve is fitted by a minimum sum of squares method to the plot of % of control value substracted with blanc value versus compound concentration and the half maximal inhibitory concentration (IC50) value is derived from this curve.
(§2) The compounds of the invention are generally selective for PDE10 compared to other PDEs and there are a few that also have affinity for PDE1B1, 4D3 and 5A3.

[3] = target: PDE5A3 (Homo sapiens, UniProt O76074); assay: In vitro PDE selectivity assay (SPA), PDE5A3; format: biochemical; conditions: hPDE5A3; read-out: PDE 5A3 (expressed as pIC50) (converted)
Experimental: as §1, §2

[4] = target: other members of the PDE family (Homo sapiens, UniProt O00408); assay: In vitro PDE selectivity assay (SPA), other members of the PDE family (protocols in Table A); format: biochemical; conditions: hPDE2A; read-out: PDE 2A (expressed as pIC50) (converted)
other members of the PDE family (Homo sapiens, UniProt O00408), sequence (O00408 whole entry, canonical isoform): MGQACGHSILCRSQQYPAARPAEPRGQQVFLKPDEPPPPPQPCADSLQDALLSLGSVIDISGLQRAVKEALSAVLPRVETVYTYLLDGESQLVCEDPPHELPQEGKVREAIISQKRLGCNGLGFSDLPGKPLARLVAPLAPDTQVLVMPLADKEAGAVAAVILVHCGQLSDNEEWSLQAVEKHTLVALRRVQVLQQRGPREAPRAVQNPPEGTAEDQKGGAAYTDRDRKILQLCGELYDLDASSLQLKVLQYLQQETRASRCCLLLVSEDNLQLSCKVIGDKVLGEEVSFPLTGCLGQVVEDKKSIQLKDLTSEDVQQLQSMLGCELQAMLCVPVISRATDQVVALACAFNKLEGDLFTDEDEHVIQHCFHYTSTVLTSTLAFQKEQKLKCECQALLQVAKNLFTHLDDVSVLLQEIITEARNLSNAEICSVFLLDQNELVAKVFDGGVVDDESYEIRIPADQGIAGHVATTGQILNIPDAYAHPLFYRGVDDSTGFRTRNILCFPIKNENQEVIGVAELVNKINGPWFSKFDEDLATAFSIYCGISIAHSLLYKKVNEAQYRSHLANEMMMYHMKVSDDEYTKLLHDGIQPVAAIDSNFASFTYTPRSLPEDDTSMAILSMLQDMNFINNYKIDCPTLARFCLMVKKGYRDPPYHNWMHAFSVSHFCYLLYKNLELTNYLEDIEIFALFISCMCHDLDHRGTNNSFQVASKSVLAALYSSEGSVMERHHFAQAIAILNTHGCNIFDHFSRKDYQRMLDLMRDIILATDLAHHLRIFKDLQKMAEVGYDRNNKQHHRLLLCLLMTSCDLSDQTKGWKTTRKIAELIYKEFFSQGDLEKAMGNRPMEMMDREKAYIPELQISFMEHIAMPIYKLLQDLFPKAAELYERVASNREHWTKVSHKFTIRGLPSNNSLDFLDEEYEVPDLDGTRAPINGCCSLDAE
In short: (§3)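 Inhibition of each PDE isoform was measured by scintillation proximity assay with ³H-cyclic nucleotide substrate, using incubation buffer, substrate concentration, incubation time and stop solution adapted per isoform. Compounds were tested in dose-response against 1% DMSO controls and enzyme-free blanks. IC50 came from a least-squares fit of blank-subtracted % of control versus concentration.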

[5] = target: other members of the PDE family (Homo sapiens, UniProt O76083); assay: as above; format: biochemical; conditions: hPDE9A; read-out: PDE 9A (expressed as pIC50) (converted)
other members of the PDE family (Homo sapiens, UniProt O76083), sequence (O76083 whole entry): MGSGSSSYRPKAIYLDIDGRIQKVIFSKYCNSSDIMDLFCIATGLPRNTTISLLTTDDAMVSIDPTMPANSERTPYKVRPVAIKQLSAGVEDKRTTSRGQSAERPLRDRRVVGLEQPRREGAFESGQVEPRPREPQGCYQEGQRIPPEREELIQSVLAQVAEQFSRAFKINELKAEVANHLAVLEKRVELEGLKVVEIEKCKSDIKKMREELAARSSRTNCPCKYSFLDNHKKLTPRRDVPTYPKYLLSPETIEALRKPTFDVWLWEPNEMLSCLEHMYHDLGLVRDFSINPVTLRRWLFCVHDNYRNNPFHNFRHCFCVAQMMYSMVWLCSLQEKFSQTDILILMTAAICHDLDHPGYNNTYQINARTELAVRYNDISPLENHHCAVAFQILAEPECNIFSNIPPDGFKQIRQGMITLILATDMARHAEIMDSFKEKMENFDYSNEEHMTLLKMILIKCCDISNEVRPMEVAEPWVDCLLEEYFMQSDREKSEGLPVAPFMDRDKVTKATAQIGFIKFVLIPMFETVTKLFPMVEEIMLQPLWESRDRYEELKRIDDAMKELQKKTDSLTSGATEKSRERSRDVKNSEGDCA
In short: as §3

[6] = target: other members of the PDE family (Homo sapiens, UniProt Q13946); assay: as above; format: biochemical; conditions: hPDE7A1; read-out: PDE 7A (expressed as pIC50) (converted)
other members of the PDE family (Homo sapiens, UniProt Q13946), sequence (Q13946 whole entry): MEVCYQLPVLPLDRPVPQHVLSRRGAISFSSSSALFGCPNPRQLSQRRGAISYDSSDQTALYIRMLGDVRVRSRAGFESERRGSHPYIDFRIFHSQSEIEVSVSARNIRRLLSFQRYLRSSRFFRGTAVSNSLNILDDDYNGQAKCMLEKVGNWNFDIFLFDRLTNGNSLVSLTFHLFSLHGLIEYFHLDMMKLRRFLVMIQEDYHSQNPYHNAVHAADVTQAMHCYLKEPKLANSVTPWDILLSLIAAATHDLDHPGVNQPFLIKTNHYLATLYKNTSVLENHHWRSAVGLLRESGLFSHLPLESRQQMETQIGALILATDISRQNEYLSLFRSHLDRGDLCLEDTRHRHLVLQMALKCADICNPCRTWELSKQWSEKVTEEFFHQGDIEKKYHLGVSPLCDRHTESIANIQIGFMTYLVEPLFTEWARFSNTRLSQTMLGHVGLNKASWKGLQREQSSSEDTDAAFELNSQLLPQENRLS
In short: as §3

[7] = target: other members of the PDE family (Homo sapiens, UniProt Q14432); assay: as above; format: biochemical; conditions: hPDE3A; read-out: PDE 3A (expressed as pIC50) (converted)
other members of the PDE family (Homo sapiens, UniProt Q14432), sequence (Q14432 whole entry): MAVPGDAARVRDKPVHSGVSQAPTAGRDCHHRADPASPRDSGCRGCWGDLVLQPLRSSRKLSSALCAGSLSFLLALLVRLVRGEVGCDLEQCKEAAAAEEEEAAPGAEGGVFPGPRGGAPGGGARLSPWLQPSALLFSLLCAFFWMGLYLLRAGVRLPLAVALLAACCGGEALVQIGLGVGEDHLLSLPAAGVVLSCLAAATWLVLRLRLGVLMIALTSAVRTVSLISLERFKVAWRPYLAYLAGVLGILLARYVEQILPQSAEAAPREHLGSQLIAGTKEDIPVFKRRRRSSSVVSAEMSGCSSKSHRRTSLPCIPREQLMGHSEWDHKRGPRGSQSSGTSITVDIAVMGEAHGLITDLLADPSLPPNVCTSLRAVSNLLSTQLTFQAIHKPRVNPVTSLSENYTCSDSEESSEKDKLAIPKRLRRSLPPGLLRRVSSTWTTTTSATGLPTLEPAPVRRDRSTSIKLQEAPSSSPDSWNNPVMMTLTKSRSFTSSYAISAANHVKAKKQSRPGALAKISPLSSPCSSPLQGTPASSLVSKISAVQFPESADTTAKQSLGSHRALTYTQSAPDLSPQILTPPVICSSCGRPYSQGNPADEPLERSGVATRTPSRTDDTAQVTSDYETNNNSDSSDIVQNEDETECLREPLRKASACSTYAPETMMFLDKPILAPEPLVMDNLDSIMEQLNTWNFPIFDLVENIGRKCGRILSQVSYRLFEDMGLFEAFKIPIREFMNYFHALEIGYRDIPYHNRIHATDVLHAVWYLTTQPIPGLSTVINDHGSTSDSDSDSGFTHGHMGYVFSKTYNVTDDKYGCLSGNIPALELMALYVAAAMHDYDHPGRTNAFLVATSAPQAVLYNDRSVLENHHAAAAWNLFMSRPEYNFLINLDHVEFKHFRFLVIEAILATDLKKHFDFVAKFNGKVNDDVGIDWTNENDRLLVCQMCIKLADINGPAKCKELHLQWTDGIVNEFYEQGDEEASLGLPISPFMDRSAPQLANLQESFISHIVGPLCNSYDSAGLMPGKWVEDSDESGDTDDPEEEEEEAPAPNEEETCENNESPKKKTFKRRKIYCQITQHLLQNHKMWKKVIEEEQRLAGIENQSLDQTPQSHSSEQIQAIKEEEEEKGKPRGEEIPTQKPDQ
In short: as §3

[8] = target: other members of the PDE family (Homo sapiens, UniProt Q9HCR9); assay: as above; format: biochemical; conditions: hPDE11A4; read-out: PDE 11A4 (expressed as pIC50) (converted)
other members of the PDE family (Homo sapiens, UniProt Q9HCR9), sequence (Q9HCR9 whole entry): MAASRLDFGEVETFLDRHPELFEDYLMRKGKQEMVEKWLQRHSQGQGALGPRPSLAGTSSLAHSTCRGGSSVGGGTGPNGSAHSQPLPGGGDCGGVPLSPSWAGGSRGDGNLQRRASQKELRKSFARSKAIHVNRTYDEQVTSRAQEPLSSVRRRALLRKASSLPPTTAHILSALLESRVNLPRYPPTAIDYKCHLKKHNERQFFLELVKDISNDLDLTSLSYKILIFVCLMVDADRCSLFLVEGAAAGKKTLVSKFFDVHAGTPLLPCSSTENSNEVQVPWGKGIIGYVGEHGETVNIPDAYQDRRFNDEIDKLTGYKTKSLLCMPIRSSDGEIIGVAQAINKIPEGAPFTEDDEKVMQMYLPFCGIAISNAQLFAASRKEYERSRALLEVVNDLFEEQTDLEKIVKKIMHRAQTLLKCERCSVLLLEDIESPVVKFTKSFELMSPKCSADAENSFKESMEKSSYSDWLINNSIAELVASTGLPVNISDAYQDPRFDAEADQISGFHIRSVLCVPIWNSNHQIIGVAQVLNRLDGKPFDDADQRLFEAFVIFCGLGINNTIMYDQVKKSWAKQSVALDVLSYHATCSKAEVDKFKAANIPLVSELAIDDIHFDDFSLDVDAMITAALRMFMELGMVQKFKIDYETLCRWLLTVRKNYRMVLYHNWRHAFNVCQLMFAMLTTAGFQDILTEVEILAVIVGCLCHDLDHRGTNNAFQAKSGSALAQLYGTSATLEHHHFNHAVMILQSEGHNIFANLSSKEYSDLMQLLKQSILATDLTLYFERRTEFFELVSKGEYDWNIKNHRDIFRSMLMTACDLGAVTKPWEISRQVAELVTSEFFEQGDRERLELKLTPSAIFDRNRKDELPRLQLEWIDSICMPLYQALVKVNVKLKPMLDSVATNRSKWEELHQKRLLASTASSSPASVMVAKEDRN
In short: as §3

[9] = test system: apomorphine-induced stereotypy in rats; assay: Apomorphine-induced stereotypy in rats (APO); format: in vivo; conditions: Rattus norvegicus; dose at which 50% of the tested animals show the effect; ≧: active in 30% of the animals at the indicated dose; ≦: active in 60%
Experimental: Apomorphine (1.0 mg/kg, i.v.)-induced stereotypy (compulsive sniffing, licking, chewing) was scored every 5 min over the first hour after injection of apomorphine, following a 1 hour interval pre-treatment with the test compound. The score system was: (3) pronounced, (2) moderate, (1) slight, and (0) absent.

[10] = target: T2, PDE10 (Rattus norvegicus, UniProt Q9QYJ6); assay: PDE10 occupancy ([3H]-MP-10, striatum); format: in vivo; conditions: for ED50 / receptor occupancy at 10 mg/kg: rat, sc; for ED50: dose response, subcutaneous administration, read-out: PDE10 in vivo occupancy ED50 sc; for receptor occupancy at 10 mg/kg: single dose 10 mg/kg, subcutaneous, read-out: SD sc % occupancy at 10 mg/kg
T2 construct: from tissue; host or cells: rat brain sections, striatum (in vivo dosing, ex vivo autoradiography)
T2 sequence (Q9QYJ6 1-794): T1 sequence (Q9QYJ6 1-794)
In short: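 Male Wistar rats (200 g) dosed s.c. or p.o.; occupancy measured 1 h post-dose. [^3H]-MP-10 (10 μCi/animal) given i.v. 30 min before sacrifice.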

[11] = Table 4 in vitro selectivity, read-out: PDE 10A2 (expressed as pIC50) (converted)
[12] = pIC50 corresponds to the −log IC50 expressed in mol/L, read-out: PDE10A2 pIC50 (converted)

| SMILES | IC50 [1, 11] | IC50 [1, 12] | IC50 [2] | IC50 [3] | IC50 [4] | IC50 [5] | IC50 [6] | IC50 [7] | IC50 [8] | ED50 [9] | ED50 [10] | receptor occupancy at 10 mg/kg [10] | % occupancy at the highest dose tested ([10]; dose response sc, data between brackets) |
| --- | --- | --- | --- | --- | --- | --- | --- | --- | --- | --- | --- | --- | --- |
| COC(C)(C)Cn1cc(-c2c(C)nc3c(N4CCOCC4)ccnn23)cn1 [compound 37, 3-[1-(2-methoxy-2-methylpropyl)-1H-pyrazol-4-yl]-2-methyl-8-(4-morpholinyl)-imidazo[1,2-b]pyridazine] | 0.0501 µM | 0.0501 µM | 30.9 µM | 6.03 µM | 53.7 µM | > 100 µM | 45.7 µM | 11 µM | 39.8 µM | 1.5 mg/kg | 2.2 mg/kg | 67% |  |
| Cc1nc2c(-c3ccncc3)ccnn2c1-c1cnn(CC(C)C)c1 [compound 124, 2-methyl-3-[1-(2-methylpropyl)-1H-pyrazol-4-yl]-8-(4-pyridinyl)-imidazo[1,2-b]pyridazine] | 0.0224 µM | 0.0224 µM | 7.41 µM | 1.95 µM | 8.71 µM | > 10 µM | 5.37 µM | 6.92 µM | 5.37 µM | 1.2 mg/kg | 3 mg/kg |  |  |
| COCCn1cc(-c2c(C)nc3c(N4CCOCC4)cc(C4CC4)nn23)cn1 [compound 125, 6-cyclopropyl-3-[1-(2-methoxyethyl)-1H-pyrazol-4-yl]-2-methyl-8-(4-morpholinyl)-imidazo[1,2-b]pyridazine] | 0.0832 µM | 0.0832 µM | 2.09 µM | 1.26 µM | 8.51 µM | > 10 µM | > 10 µM | > 10 µM | 4.47 µM | ≥ 2.5 mg/kg | > 10 mg/kg |  | 42% |
| CCc1nc2c(N3CCOCC3)ccnn2c1-c1cnn(CCOC)c1 [compound 127, 2-ethyl-3-[1-(2-methoxyethyl)-1H-pyrazol-4-yl]-8-(4-morpholinyl)-imidazo[1,2-b]pyridazine] | 0.112 µM | 0.112 µM | > 10 µM | 4.68 µM | > 10 µM | > 10 µM | > 10 µM | > 10 µM | > 10 µM | 2 mg/kg |  | 4% |  |
| CO[C@@H](C)Cn1cc(-c2c(C)nc3c(N4CCOCC4)ccnn23)cn1 [compound 131, 3-[1-[(2S)-2-methoxypropyl]-1H-pyrazol-4-yl]-2-methyl-8-(4-morpholinyl)-imidazo[1,2-b]pyridazine] | 0.0347 µM | 0.0347 µM | > 10 µM | 8.51 µM | > 10 µM | > 10 µM | > 10 µM | > 10 µM | > 10 µM | 3.1 mg/kg |  | 59% |  |
| COCCn1cc(-c2c(C3CC3)nc3c(-c4ccncc4)ccnn23)cn1 [compound 142, 2-cyclopropyl-3-[1-(2-methoxyethyl)-1H-pyrazol-4-yl]-8-(4-pyridinyl)-imidazo[1,2-b]pyridazine] | 0.0145 µM | 0.0145 µM | 2.82 µM | 1.15 µM | 5.5 µM | > 10 µM | 5.01 µM | 5.13 µM | 1.82 µM | 5 mg/kg |  | 78% |  |
| COCCn1cc(-c2c(C)nc3c(-c4ccncc4)cc(Cl)nn23)cn1 [compound 147, 6-chloro-3-[1-(2-methoxyethyl)-1H-pyrazol-4-yl]-2-methyl-8-(4-pyridinyl)-imidazo[1,2-b]pyridazine] | 0.0676 µM | 0.0676 µM | 3.8 µM | 1.17 µM | > 10 µM | > 10 µM | 3.55 µM | > 10 µM | 3.8 µM | 5 mg/kg |  | 22% |  |
| CC(C)Cn1cc(-c2c(C3CC3)nc3c(-c4ccncc4)ccnn23)cn1 [compound 148, 2-cyclopropyl-3-[1-(2-methylpropyl)-1H-pyrazol-4-yl]-8-(4-pyridinyl)-imidazo[1,2-b]pyridazine] | 0.0251 µM | 0.0251 µM | 2.57 µM | 1.23 µM | 4.37 µM | > 10 µM | 2.88 µM | 3.16 µM | 1.91 µM | 5 mg/kg |  | 66% |  |
